Results reported in paper PMC12326981, “Novel C5α-substituted carbapenems enhance Mycobacterium abscessus killing via selective target binding and reduced hydrolysis by BlaMab” (Antimicrobial Agents and Chemotherapy, 2025).
Where “and” joins values, the source holds several entries; their conditions need not be identical. Identical values can stand only once. Like-named read-outs stand apart in the source and are kept apart here.

Key:
[1] = Thermal stability in 7H9 broth at 30°C; conditions: for Degradation percentage / degradation after 24 h: 7H9 broth, 30°C; for Degradation percentage: 24 h; for degradation after 24 h: 50 mg/L and 10 mg/L (Fig. S2); for half-life: buffer
Description: The stability of the two compounds in 7H9 broth was assessed at 30°C at drug concentrations of 10, 50, and 100 mg/L, with each condition tested in triplicate. Absorbance at 240 nm was measured every 2 h over a 24 h period using a BioTek Synergy2 multimode reader, with data analyzed via Gen5 software to monitor degradation or changes in stability. To evaluate the impact of thermal instability, MIC tests were performed using Mab ATCC 19977. Compounds were tested at time points of 0 h (no incubation) and 6, 24, and 48 h of incubation at 30°C. Imipenem and meropenem, known to be thermally unstable β-lactams, were included as positive controls. The MIC results were recorded after 48 h of incubation. Detailed MIC testing protocols were identical to those described below.

Mab ATCC 19977 = experiment: MIC testing with drugs pre-incubated in 7H9 broth (effect of drug instability); assay type: cell-based, Mycobacterium abscessus; conditions: for MIC: Mycobacteroides abscessus, ATCC19977; for MIC rise after 24 and 48 h incubation vs nonincubated: drug incubated 24 and 48 h
Description: MICs were determined in duplicate following Clinical Laboratory Standards Institute ([52]) guidelines using Middlebrook 7H9 broth supplemented with 10% (vol/vol) oleic acid-albumin-dextrose-catalase (OADC) and 0.05% (vol/vol) Tween 80, with an inoculum of 5 × 10⁵ CFU/mL. MIC testing of two C5α-substituted carbapenems was conducted both individually and in combination with cephalosporins (cefuroxime and ceftaroline), penicillins (amoxicillin), or BLIs (avibactam or durlobactam + sulbactam). Avibactam, durlobactam, cefuroxime, ceftaroline, and amoxicillin were fixed at concentrations of 4, 1, 2, 4, and 4 mg/L, respectively. Amoxicillin was combined with 4 mg/L avibactam, as it is highly susceptible to hydrolysis by BlaMab ([12], [15], [25]). The MIC was defined as the lowest antibiotic concentration that inhibited visible bacterial growth following 48 h of incubation at 30°C.

[2] = system: Mab strain ATCC 19977 and three clinical isolates (Mab122, Mab686, and UH01); experiment: Static concentration time-kill (SCTK) assay; assay type: cell-based, Mycobacterium abscessus
Description: SCTK studies were conducted over 5 days in Middlebrook 7H9 broth supplemented with 10% (vol/vol) OADC, 0.2% (vol/vol) glycerol, and 0.05% (vol/vol) Tween 80 in duplicate. The efficacy of JDB/NA-1-157 and JDB/NA-208 was evaluated using Mab strain ATCC 19977 and three clinical isolates (Mab122, Mab686, and UH01) at an initial inoculum of 10^5.5–10^6.3 CFU/mL. […] Bacterial killing was assessed across a wide range of concentrations for JDB/NA-1-157 and JDB/NA-1-208 individually (0.0625–64.0 mg/L).
For the combination study, the concentrations of JDB/NA-1-157 and JDB/NA-1-208 were selected based on MIC results and time-killing profiles of the single-drug study, while the concentrations of other β-lactams and BLIs were chosen based on clinically relevant levels, determined from the predicted average unbound steady-state concentrations (fCss,avg) in plasma at clinically relevant doses ([27]). The drug concentrations used were JDB/NA-1-157, 1 mg/L; JDB/NA-1-208, 8 mg/L; imipenem, 12 mg/L; ceftaroline, 8 mg/L; cefuroxime, 8 mg/L; amoxicillin, 2 mg/L; avibactam, 4 mg/L; durlobactam, 12 mg/L; amikacin, 12 mg/L; clarithromycin, 0.3 mg/L; and cefoxitin, 7 mg/L. The SOC regimen was included for comparison of efficacy. On day 3, the broth was replaced with fresh broth containing the corresponding drug concentrations. For viable cell counts, 100 µL of undiluted or appropriately diluted samples was subcultured on Middlebrook 7H10 agar plates supplemented with 1% (vol/vol) OADC, 0.2% glycerol, and 0.05% (vol/vol) Tween 80. All samples were washed twice with sterile 0.9% saline prior to serial dilution or plating.

PBP-lipo = biological target: T1, PBP-lipo (Mycobacteroides abscessus, UniProt B1MDC3); experiment: Bocillin-FL competitive binding assay; conditions: Bocillin-FL competition, 1:10 molar ratio
T1 construct: made in house; host or cells: Escherichia coli BL21 (DE3)
Description: The binding of JDB/NA-1-157 and JDB/NA-1-208 to PBP-lipo was assessed using a Bocillin-FL competitive assay as previously described ([25]). Briefly, purified PBP-lipo and the compounds (at a 1:10 molar ratio) were incubated in a buffer containing 10 mM sodium phosphate (pH 7.4) and 150 mM NaCl for 2 h at room temperature, followed by additional incubation with 1 µM Bocillin FL for 4 h at 37°C. Samples were boiled and analyzed by SDS-PAGE. The PBP-lipo:Bocilli complexes were detected via fluorescence at 488 nm using an Azure 300 gel imaging system. Band intensity was quantified using GelAnalyzer software.

PBP B = PBP B (Mycobacteroides abscessus, UniProt B1MP31); experiment: Apparent inhibition constant (nitrocefin, Dixon plot); assay type: biochemical; conditions: PBP B
Description: (§1) Steady-state kinetic studies with JDB/NA-1-157 and JDB/NA-1-208 were performed using purified LDTs and PBPs, including LDT1–5, PBP-B, PBP-lipo, and D,D-carboxypeptidase. The assays were conducted on a BioTek Synergy2 multimode reader equipped with Gen5 software. To determine the Michaelis constant (Km^NCF) for each LDT and PBP, a wide range of NCF concentrations was tested, while the enzyme concentrations were fixed. Absorbance changes at 482 nm were monitored over 10 min. Steady-state kinetic parameters (Vmax and Km) were derived by fitting the experimental data to the Henri–Michaelis–Menten equation using nonlinear least-squares regression in GraphPad Prism version 9. The reaction velocity (v) at a given substrate concentration ([S]) was calculated using equation 2: […]
(§2) The apparent inhibition constants (Ki,app) for JDB/NA-1-157 and JDB/NA-1-208 were determined under the following conditions: an NCF concentration of 5 × Km, fixed concentrations of LDT or PBP enzymes, and varying concentrations of JDB/NA-1-157 and JDB/NA-1-208. Absorbance changes at 482 nm were monitored over a 30 min period for each inhibitor concentration. The data were linearized using a Dixon plot, which involves plotting the reciprocal of the absorbance change (1/ΔA) against the concentrations of JDB/NA-1-157 or JDB/NA-1-208. Apparent Ki,app values were derived from the intersection points on the Dixon plot and were subsequently corrected for substrate concentration and enzyme affinity using equation 3:
(§3) (3) Ki,app=observed Ki,app/1+[NCF]/Km NCF.

LDT5 = LDT5 (Mycobacteroides abscessus, UniProt B1MHQ4); experiment: as above; assay type: biochemical, Mycobacterium abscessus; conditions: read-out: Ki,app
Description: as §1, §2, §3

[3] = drug incubated 6 h in 7H9 broth at 30°C
[4] = drug incubated 24 h in 7H9 broth at 30°C
[5] = drug incubated 48 h in 7H9 broth at 30°C

T1 sequence (B1MDC3 entry or part of it): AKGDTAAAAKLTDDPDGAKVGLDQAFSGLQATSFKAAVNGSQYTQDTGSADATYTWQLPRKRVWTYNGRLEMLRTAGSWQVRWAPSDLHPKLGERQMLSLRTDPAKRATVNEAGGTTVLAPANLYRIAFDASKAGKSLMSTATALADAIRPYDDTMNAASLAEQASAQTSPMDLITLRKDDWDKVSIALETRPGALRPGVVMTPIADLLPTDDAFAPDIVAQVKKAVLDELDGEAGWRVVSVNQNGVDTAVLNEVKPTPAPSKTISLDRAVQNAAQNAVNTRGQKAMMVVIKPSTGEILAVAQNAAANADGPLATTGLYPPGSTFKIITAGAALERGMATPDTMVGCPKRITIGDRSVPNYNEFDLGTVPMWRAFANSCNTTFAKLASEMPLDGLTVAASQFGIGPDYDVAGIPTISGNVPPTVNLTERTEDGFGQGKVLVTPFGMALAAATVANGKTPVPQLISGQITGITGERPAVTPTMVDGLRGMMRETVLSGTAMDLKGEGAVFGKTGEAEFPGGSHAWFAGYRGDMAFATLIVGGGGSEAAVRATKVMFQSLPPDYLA
Chain of PBP B (B1MP31 entry or part of it): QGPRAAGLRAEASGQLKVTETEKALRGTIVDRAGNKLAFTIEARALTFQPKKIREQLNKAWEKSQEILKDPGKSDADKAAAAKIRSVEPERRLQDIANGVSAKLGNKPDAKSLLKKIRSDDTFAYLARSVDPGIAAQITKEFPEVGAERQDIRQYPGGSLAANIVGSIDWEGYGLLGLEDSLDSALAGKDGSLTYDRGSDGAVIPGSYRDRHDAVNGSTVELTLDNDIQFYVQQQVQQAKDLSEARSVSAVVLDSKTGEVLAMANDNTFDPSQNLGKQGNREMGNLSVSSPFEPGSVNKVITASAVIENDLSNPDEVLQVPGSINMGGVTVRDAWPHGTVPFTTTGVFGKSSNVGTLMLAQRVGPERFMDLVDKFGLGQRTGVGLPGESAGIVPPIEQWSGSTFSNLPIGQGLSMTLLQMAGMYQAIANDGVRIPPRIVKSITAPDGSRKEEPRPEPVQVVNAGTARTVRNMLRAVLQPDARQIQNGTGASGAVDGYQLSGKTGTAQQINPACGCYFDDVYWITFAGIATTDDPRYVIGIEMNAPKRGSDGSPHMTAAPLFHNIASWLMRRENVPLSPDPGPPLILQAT
Chain of LDT5 (B1MHQ4 entry or part of it): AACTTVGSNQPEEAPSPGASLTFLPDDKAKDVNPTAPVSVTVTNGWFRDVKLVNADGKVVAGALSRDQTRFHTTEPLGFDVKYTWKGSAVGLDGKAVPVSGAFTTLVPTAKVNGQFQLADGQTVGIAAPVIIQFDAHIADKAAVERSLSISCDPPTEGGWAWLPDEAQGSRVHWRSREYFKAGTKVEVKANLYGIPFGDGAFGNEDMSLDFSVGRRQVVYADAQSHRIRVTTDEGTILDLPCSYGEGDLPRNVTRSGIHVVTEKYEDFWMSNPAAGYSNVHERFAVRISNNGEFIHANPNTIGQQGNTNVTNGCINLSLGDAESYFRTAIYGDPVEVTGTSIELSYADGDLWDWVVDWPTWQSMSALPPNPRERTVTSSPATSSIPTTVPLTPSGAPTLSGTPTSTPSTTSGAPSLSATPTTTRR

| Structure (SMILES) | Degradation percentage ([1]; 10 mg/L) [%] | degradation after 24 h [1] | Degradation percentage ([1]; 50 mg/L) [%] | half-life [1] [h] | MIC (Mab ATCC 19977; [3]) [µg/mL] | MIC (Mab ATCC 19977; [4]) [µg/mL] | MIC (Mab ATCC 19977; [5]) [µg/mL] | MIC (Mab ATCC 19977; no incubation of drug) [µg/mL] | MIC rise after 24 and 48 h incubation vs nonincubated (Mab ATCC 19977) | binding to PBP-lipo (PBP-lipo) | further results |
| --- | --- | --- | --- | --- | --- | --- | --- | --- | --- | --- | --- |
| CC[C@]12CC(S[C@@H]3CN[C@H](C(=O)N(C)C)C3)=C(C(=O)O)N1C(=O)[C@@H]2[C@@H](C)O [JDB/NA-1-208] | 0.6 | approximately 10% | 10.5 | 66 | 16 | 32 | 32 | 16 | twofold | lacks binding | effect of combining with avibactam on killing ([2]; 8 mg/L + avibactam 4 mg/L): no significant effect; bacterial killing in combination ([2]; 8 mg/L with ceftaroline, cefuroxime, amoxicillin (with avibactam), or durlobactam): near-complete eradication; log10 CFU killing ([2]; single agent, 64 mg/L): ~ 3 log10 CFU; Ki (PBP B; read-out: Ki,app (converted)): 0.0805 µM; Ki (LDT5): 28.9 µM |
| C[C@@H](O)[C@H]1C(=O)N2C(C(=O)O)=C(S[C@@H]3CN[C@H](C(=O)N(C)C)C3)C[C@]12C [JDB/NA-1-157] | 11.9 | 16% | 16.2 | 50 | 0.25 | 2 | 2 | 0.25 | fourfold | form acyl-enzyme complexes | Degradation percentage ([1]; 100 mg/L): 16% and 16.6%; bacterial killing in combination ([2]; 1 mg/L with BLIs (avibactam or durlobactam) or β-lactams (cefuroxime, ceftaroline, or amoxicillin), by day 3, ATCC 19977, Mab122, Mab686): near-complete eradication; bacterial killing on addition of avibactam ([2]; ATCC 19977, JDB/NA-1-157 1 mg/L + avibactam 4 mg/L): up to 2.5 log10 CFU/mL; log10 CFU/mL reduction ([2]; single agent, 4 mg/L, over 5 days, ATCC 19977 and clinical isolates): 1.5–2.0 log10 CFU/mL; bacterial killing at high concentration ([2]; single agent, 16–64 mg/L, 5 days): near-complete eradication; Ki (PBP B; Ki,app): 4.9 µM |
